Patent US20230022779A1, “DETECTION OF VIABLE MICROORGANISMS IN URINE” (Children's National Medical Center, priority 2021, published 2023)
Where “and” joins values, the source holds several entries; their conditions need not be identical. Equal entries are not always repeated.

Key:
[1] = tested on: Klebsiella pneumoniae (ATCC 13883), phoE gene; assay: PMA-qPCR of bacteria grown with ciprofloxacin; format: cell-based; conditions: 1000 μg/mL ciprofloxacin, 3 and 24-hour treatments
From the text: The samples underwent PMA treatment, followed by DNA extraction, as described in Example 2. A primer set specific for K. pneumoniae that targets the gene phoE, derived from Shannon et al (doi:10.1016/j.scitotenv. 2007.02.039) was used in conjunction with the samples in a qPCR reaction.

[2] = tested on: E. coli (UTI89); assay: Mouse UTI model, ciprofloxacin treatment, urine culture and PMA-PCR; conditions: 10 mg/kg i.p. twice a day for 3 days from day 5 post-inoculation; urine one day after completion

Structure (SMILES): O=C(O)c1cn(C2CC2)c2cc(N3CCNCC3)c(F)cc2c1=O [ciprofloxacin, Ciprofloxacin]
- CT value of PMA-treated sample compared to non-PMA-treated equivalent [1]: greater CT
- groups of mice with no growth on non-selective LB agar [2]: 3 of 5 and 3 out of the 5
